Patent US20210128567A1, “Compositions and Methods for Cognitive, Immune and Digestive Support in Patients with Autism Spectrum Disorder” (FLAASK, LLC, priority 2017, published 2021)

Test system: children with confirmed ASD diagnoses
Experiment: Outcome of therapies received prior to the subject treatment, as reported by parents
Type: in vivo, human

Compound | result of prior treatment by Valtrex and Viferon (patient one, given together) | result of prior Valtrex, according to parents the most effective prior therapy (patient two) | result of prior 5-metylhydrofolate and Metylcobalamin B-12 (patient one, given together)
CC(C)[C@H](N)C(=O)OCCOCn1cnc2c(=O)[nH]c(N)nc21 [Valtrex, valacyclovir] | they are getting sick more rarely, learned to swim and to communicate through PECS cards | they became more communicative, attempts to speak appeared, became calmer, eye contact has improved | 
CN1c2c(nc(N)[nH]c2=O)NCC1CNc1ccc(C(=O)N[C@@H](CCC(=O)O)C(=O)O)cc1 (stereo partly shown) [5-metylhydrofolate] |  |  | more self-dependence
Metylcobalamin B-12 |  |  | more self-dependence
